Test results from ChEMBL document CHEMBL5724558, “Image-based profiling of drug vulnerabilities in CRC organoids” (2024).
Several values for one entry are separate records, joined by “and”; a condition that tells them apart may be missing. Equal values may be shown once.

Experiments:
Assay type in all cases: functional, Homo sapiens
Design in all cases: dose or concentration left out as unconfirmed
Colon cancer organoid [1] = experiment: (§1) Image-based profiling of donated chemical probes and chemogenomic kinase set in O06 CRC organoid. Image analysis is performed on the sum area metric, and the data were normalized to the DMSO control. After imaging the organoid viability is measured using the OneGloEX Luciferase Assay System. The normalized viability data and sum area are reported.
Colon cancer organoid [2] = experiment: as §1, with “O09” for “O06”
Colon cancer organoid [3] = experiment: as §1, with “O21” for “O06”

SMILES	Cell Viability (Colon cancer organoid [1]; Replication number 1)	Cell Viability (Colon cancer organoid [1]; Replication number 2)	Cell Viability (Colon cancer organoid [2]; Replication number 1)	Cell Viability (Colon cancer organoid [2]; Replication number 2)	Cell Viability (Colon cancer organoid [3]; Replication number 1)	Cell Viability (Colon cancer organoid [3]; Replication number 2)
Cn1cc(-c2ccc3occ(-c4ccccc4-c4ccccc4)c3n2)cn1	113.014% and 144.526%	79.1768% and 87.7674%	118.722% and 95.2756%	122.009% and 96.5129%	120.62% and 121.278%	112.27% and 102.009%
COc1cc(C)c(Sc2cnc(NC(=O)c3ccc(CNC(C)C(C)(C)C)cc3)s2)cc1C(=O)N1CCN(C(C)=O)CC1 (centres undefined)	76.6912% and 109.056%	80.9572% and 86.581%	101.639% and 97.9897%	78.5606% and 100.962%	74.3447% and 68.0139%	84.4374% and 89.8165%
Cc1c(C(=O)O)cc(-c2ccc(C3CCNCC3)cc2)c2ccc(-c3ccc(C(F)(F)F)cc3)cc12.Cl	120.986% and 114.413%	106.141% and 127.102%	120.061% and 98.4744%	101.967% and 96.9469%	85.8075% and 94.398%	96.6667% and 83.1067%
O=C(CNCc1cc2ccccc2[nH]1)N[C@H]1CC[C@@H](c2nc3ccccc3[nH]2)CC1	105.609% and 101.043%	76.5637% and 75.4756%	116.461% and 89.5122%	85.4342% and 106.091%	73.7634% and 95.331%	89.7869% and 102.483%
COc1cc(-c2cn(C)c(=O)c3cnccc23)c(OC)cc1CN(C)C	102.497% and 103.651%	129.558% and 87.7058%	64.3431% and 76.9706%	65.7343% and 74.6912%	113.788% and 114.043%	122.408% and 119.749%
CN(C)C(=O)Cn1cc(-c2nc(C3(c4ccc(-c5cnc(N)nc5)cc4)CC3)no2)cn1 [BI 0153]	106.576% and 110.07%	80.0994% and 77.4652%	152.465% and 95.0889%	176.713% and 106.608%	115.747% and 91.3972%	95.3195% and 84.6939%
CC(C)(O)CNc1ncc(-c2ccnc(Nc3ccnc(Cl)c3)n2)c(CC2CC2)n1	43.9028% and 71.665%	60.8585% and 108.175%	50.3707% and 42.8861%	72.1392% and 56.6897%	40.3035% and 73.5889%	46.8315% and 88.665%
Cn1c(C2(NC(=O)c3ccc(NCC4CCCCC4)nc3)CCC2)nc2ccc(/C=C/C(=O)O)cc21 [BI 7656]	99.3838% and 109.64%	121.504% and 124.591%	151.482% and 117.548%	136.087% and 97.2553%	95.8092% and 94.6419%	106.526% and 92.3751%
Nc1ccc(C(=O)Nc2cccc(-c3nc(N4CCOCC4)c4oc5ncccc5c4n3)c2)cn1	13.3803% and 32.049%	–	90.7287% and 76.048%	104.901% and 91.2435%	74.5315% and 72.4739%	83.2595% and 89.2407%
Cc1sc2c(c1C)C(c1ccc(Cl)cc1)=N[C@@H](CC(=O)NCCCCCCCCNC(=O)COc1cccc3c1C(=O)N(C1CCC(=O)NC1=O)C3=O)c1nnc(C)n1-2 (some centres undefined)	4.9545% and 11.7664%	6.03% and 10.6824%	79.9563% and 42.1947%	86.5792% and 48.4637%	41.9399% and 81.7113%	36.361% and 51.9272%
Cc1c(N2CCCC2)nc2ccc(Br)cc2c1C(=O)NC[C@H](CCC(=O)O)c1ccccc1Cl [BAY-6672]	80.703% and 111.012%	84.0903% and 90.3412%	62.7098% and 89.8462%	112.488% and 108.842%	101.261% and 132.048%	101.473% and 100.952%
C[C@@H]1CCc2ncc(F)cc2[C@H]2CCCN2c2ccn3ncc(c3n2)C(=O)N1 [SELITRECTINIB]	134.929% and 121.742%	93.5037% and 107.969%	111.995% and 102.727%	91.1731% and 73.4267%	119.212% and 110.383%	103.521% and 97.8769%
CN1C[C@H](Nc2cnn(C)c(=O)c2Br)C[C@H](c2ccccc2)C1	155.67% and 115.973%	127.596% and 115.428%	140.201% and 85.3168%	101.083% and 86.6646%	130.754% and 116.395%	102.417% and 96.6587%
CC(C)(C)OC(=O)N1CCCC1CNC1CCC(c2cc(F)ccc2F)(S(=O)(=O)c2ccc(Cl)cc2)CC1 (centres undefined) [GSI-NC]	66.8797% and 82.4356%	76.3317% and 68.2262%	125.581% and 90.7884%	108.329% and 85.8708%	89.6265% and 62.8719%	87.5663% and 80.102%
COc1cc(Nc2nccc(-c3cnn4nc(OC)ccc34)n2)cc(C(F)(F)F)c1	24.0396% and 55.0969%	25.0029% and 51.7745%	18.7716% and 22.0247%	18.9351% and 21.2081%	43.8285% and 81.0407%	69.763% and 98.0422%
Cn1cnc2c(F)c(Nc3ccc(Br)cc3Cl)c(C(=O)NOCCO)cc21 [SELUMETINIB]	17.7792% and 31.8399%	27.9489% and 57.8656%	59.0124% and 83.6445%	134.387% and 96.018%	30.9074% and 27.5425%	36.6071% and 40.747%
O=C(N1CCS(=O)(=O)CC1)N1C[C@H](c2ccc(OC(F)(F)F)cc2)C[C@H](c2nc(C3CC3)no2)C1 [BAY-386]	89.0523% and 95.7845%	109.266% and 112.289%	89.9865% and 101.779%	61.3549% and 77.1084%	113.622% and 103.04%	77.465% and 87.7551%
CNC(=O)c1ccc(Nc2ncc(C(F)(F)F)c(NCc3nccnc3N(C)S(C)(=O)=O)n2)cc1 [DEFACTINIB]	124.45% and 120.141%	102.609% and 90.0207%	29.7376% and 36.5543%	24.312% and 22.1979%	89.1869% and 86.74%	98.5669% and 117.347%
O=C(Nc1cccnc1)c1cc(-c2ccnc(F)c2)ccc1OCc1ccccc1	114.96% and 114.62%	124.178% and 97.892%	214.708% and 117.189%	126.13% and 109.87%	112.865% and 104.808%	105.956% and 96.1497%
CN(C)C(=O)/C(C#N)=C/c1ccc(-c2nc3cnc4c(ccn4C)c3n2C2CCCCC2)o1	94.8079% and 114.901%	118.022% and 96.0735%	117.89% and 123.735%	132.247% and 113.588%	100.887% and 101.443%	86.9771% and 102.576%
